Laboratory results as given in paper PMC5175178, “Development of an in-vivo active reversible butyrylcholinesterase inhibitor” (Scientific Reports, 2016).

Legend:
[1] = target: T1, huBChE (Homo sapiens, UniProt P06276); test: Kinetic studies for huBChE inhibition, stopped-flow progress curves; type: biochemical; conditions: hydrolysis by huBChE, pH 8
T1 construct: made in house
Protocol: This situation is referred to as tight binding inhibition. […] Of note, a high enzyme concentration was used in order to investigate the time-dependent inhibition and to reach the plateau of the reaction, which allowed precise quantification of the substrate concentration. […] The curves were analyzed simultaneously using the ENZO application[36].
Briefly, the time-course of yellow color formation was followed on a Bio-logic SFM-2000 stopped flow apparatus at 25 °C. […] The buffer solutions were injected into a mixing chamber using syringes. […] The progress curves obtained were analyzed simultaneously, using the ENZO application[36], which can derive and numerically solve a system of differential equations, and fit their coefficients. Several reaction mechanisms were tested.

[2] = in vitro; conditions: human, human plasma
Protocol: (§1) The plasma metabolic stability and hepatic clearance were estimated by the substrate depletion method.
(§2) The incubation was performed in a 37 °C water bath for 2 h. An aliquot of the incubation mixture was transferred to acetonitrile at 0, 0.5, 1, 1.5 and 2 h, respectively. Samples were then mixed and centrifuged. Supernatants were used for HPLC-MS/MS analysis using selected reaction monitoring, and peak areas were recorded for each analyte. The HPLC conditions consisted of a binary LC pump with autosampler, a C18 column (2 × 20 mm), and gradient elution. The area of precursor compound remaining after each time points relative to the amount remaining at time zero, expressed as percent, is calculated. Subsequently, the half-life (t1/2) was estimated from the slope of the initial linear range of the logarithmic curve of the compound remaining (%) versus time, assuming first order kinetics.

[3] = Human plasma stability; conditions: human plasma, 1 µM, 37 °C
Protocol: as §1, §2

[4] = tested on: ABCB1; test: Caco-2 monolayer bidirectional permeability assay; conditions: human; for Papp A→B at 120 min: Caco-2, apical-to-basolateral apparent permeability coefficient; for Papp B→A at 120 min: Caco-2, basolateral-to-apical apparent permeability coefficient
Protocol: (§3) They were grown on Transwell® culture inserts with a polycarbonate membrane (diameter, 12 mm; pore size, 0.4 µm). 50,000 cells/filter membranes were used for seeding and the medium was changed every two days. At day 18, transepithelial electrical resistance (TEER) was measured for each filter with Caco-2 cell monolayers. […] The samples were acidified by dilution with the same volume of 0.01M HCl before fluorescence measurements.
(§4) Ringer buffer with 10 mM d-glucose or 10 mM mannitol on apical and basolateral side of the tissue, respectively, was used as an incubation saline. […] The stock solutions were added either to the apical or to the basolateral compartment to obtain bidirectional permeability measurements. Six samples were withdrawn in 20 min intervals. Each time 300 µl was taken from the 1500 µL basolateral acceptor compartment and 100 µL from the 500 µL apical acceptor compartment. These volumes were immediately replaced by the appropriate fresh incubation saline. […] All apparent permeability coefficients were calculated as described previously^24.

[5] = tested on: Caco-2 cells; test: Caco-2 monolayer bidirectional permeability assay; conditions: ABCB1 marker substrate, no inhibitor
Protocol: as §3, §4

[6] = tested on: scopolamine-induced memory impairment in mice; test: Passive avoidance task, scopolamine-induced memory impairment; type: in vivo, Albino Swiss (CD–1 Krf) mice
Protocol: The first behavioral test performed was the passive avoidance (PA) task, which allows the evaluation of the effects of a drug on fear-motivated contextual memory. […] In the passive avoidance task, better memory performance is determined according to a longer step-through latency in the retention trial (i.e., the testing phase) than in the acquisition trial (i.e., the conditioning phase). […] The mice had free access to food and water, and the ambient temperature and humidity of the room were kept constant throughout all of the tests. For the behavioral tasks, the mice were selected at random, and each group consisted of 8 to 10 mice dose^−1. The experiments were performed between 08:00 and 14:00. Immediately after these in-vivo assays, the animals were euthanized by cervical dislocation. […] All efforts were made to minimize the number of mice used and their suffering.
The effect of the test compounds on acquisition and retention in the passive avoidance task was conducted accordingly to a previously described method^30. For this purpose, the passive avoidance apparatus was used (Panlab Harvard Apparatus, Spain).
The testing phase was conducted 24 h after the acquisition phase. For the acquisition, each mouse was initially placed for 30 s in the light compartment (exploration period; guillotine gate closed). At the end of the exploration period the guillotine door between the light and the dark compartments was opened and the time elapsed before entering the black chamber was recorded. As soon as the mouse entered the dark compartment, the door automatically closed and an electrical shock (current intensity: 0.2 mA, duration: 2 s) was delivered through the grid floor.
For the retention trial (drug off), the mice were placed in the illuminated white compartment again, and the latency time between door opening and entry into the dark compartment was recorded for each mouse. […] Better memory performance was indicated by longer latency before entry into the black chamber in the test (retention) phase than in the conditioning (acquisition) phase.

[7] = tested on: scopolamine-induced memory impairment in mice; test: Two-day radial arm water maze task, scopolamine-induced memory impairment; type: in vivo, C57BL/6J mice
Protocol: In this task incorrect arm entries (i.e., errors) are counted. […] The mice had free access to food and water, and the ambient temperature and humidity of the room were kept constant throughout all of the tests. For the behavioral tasks, the mice were selected at random, and each group consisted of 8 to 10 mice dose^−1. The experiments were performed between 08:00 and 14:00. Immediately after these in-vivo assays, the animals were euthanized by cervical dislocation. […] All efforts were made to minimize the number of mice used and their suffering.
C57BL/6J mice were subjected to the radial arm water maze paradigm^34,35. The main part of the apparatus (Panlab Harvard Apparatus, Spain) consists of a 6-arm maze in a pool filled with water to approximately 10 cm from the top, to be high enough to cover the hidden platform by about 0.5 cm, but also low enough that the visible platform was not covered. The pool was regularly cleaned of any debris left by the mice. The temperature of the water was kept constant during testing (23 ±1 °C). The tester remained in the same position throughout the testing, thus providing an additional visual cue for the mice.
On day 1, 15 trials were run in five blocks of three. Each trial lasted up to 60 s. The start arm was varied for each trial, with the goal arm remaining constant for a given individual for both days^34,35. For the first 12 trials, the platform was alternately visible, then hidden, and then hidden for the last three trials. On day 2, the mice (without drug treatment on this day) were run in the same manner as on day 1, but the platform was hidden for all of the trials. As errors have been reported to be the most sensitive measure in this assay^34, the number of errors (i.e., incorrect arm entries made) was counted in a 60 s time-frame. Incorrect arm entries occurred when the mouse selected an arm that was not the goal arm. Entries into the goal arm were not counted as errors, even if the platform was not located. An entry was considered to occur when all four legs of the mice had entered the alley completely. […] If the platform was not located within 60 s, the mice were gently guided through the water by placing a hand behind the animal to direct its swimming direction toward the platform. […] After that, the mouse was gently removed from the platform and thoroughly dried using cellulose paper before placing it back into its home cage under a heat source (a heat lamp).
For the statistical analysis of the data obtained, to minimize the impact of individual trial variability, each mouse error for the finding of the platform for three consecutive trials were averaged, giving five data points (5 trial blocks): T1 (trials 1–3), T2 (trials 4–6), T3 (trials 7–9), T4 (trials 10–12) and T5 (trials 13–15), separately for each day of testing.

[8] = tested on: scopolamine-induced memory impairment in mice; test: Morris water maze task, scopolamine-induced memory impairment; conditions: for Distance in goal quadrant (% ±SEM) / Entries in zone NW (n ±SEM) / Latency time (s ±SEM) / Number of NW zone crossings (n ±SEM) / Time in target (NW) quadrant (s ±SEM) / Total distance covered (m ±SEM): probe trial day 7
Protocol: In this task the time taken to reach the hidden platform (i.e., the escape latency time), the distance travelled, and the mean speed of swimming are recorded for each experimental group. […] For the behavioral tasks, the mice were selected at random, and each group consisted of 8 to 10 mice dose^−1. The experiments were performed between 08:00 and 14:00. Immediately after these in-vivo assays, the animals were euthanized by cervical dislocation. […] All efforts were made to minimize the number of mice used and their suffering.
The Morris water maze is a circular, plastic, grey-painted pool (diameter, 120 cm; height, 60 cm), filled with water (up to about 48 cm below the edge, to prevent an animal from jumping out) that was maintained at 23 ±1 °C. The pool was divided into four equal quadrants (compass locations: NE, NW, SE, SW) by a computerized video tracking system (SMART, ver. 3.0; Panlab, Spain). An escape platform (diameter, 11 cm; height, 47 cm) at a fixed location (the center of the NW quadrant; i.e., the target quadrant). The escape platform was made of transparent Plexiglas and was immersed 1 cm under the surface of water; this was invisible to the swimming mouse. The maze was lighted with the intensity of 45 lx.
During the spatial acquisition trial (six consecutive days), the mice were assigned to training sessions (four training sessions a day; 4 h apart) in which the mice were trained to escape from the water by reaching the hidden platform, the location of which could be identified using distal extra-maze cues (A4-sized sheets of black laminated paper with colored geometric symbols) attached to the room walls to provide navigation points^31. Visual cues had different colors and dimensions, and were kept constant during the whole experiment^31,32. The whole experiment was conducted by an experimenter who remained always stationary in a constant location, thus serving as an additional distal cue for the swimming mice. […] The time taken to reach the hidden platform (escape latency time), distance travelled to reach the platform, and mean speed were recorded in each experimental group and analyzed.
On the seventh day (24 h after the last training) the platform was removed from the pool and a probe trial was performed (without drug treatment). Each animal was released from a different start point and was allowed to swim for 60 s. […] Latency time to the first crossing of the former platform location (target zone), number of crossings of the target zone, time spent in the target NW quadrant, total distance, distance spent in NW quadrant, entries into the NW quadrant, and mean speed were measured^31.

T1 sequence (P06276 29-602): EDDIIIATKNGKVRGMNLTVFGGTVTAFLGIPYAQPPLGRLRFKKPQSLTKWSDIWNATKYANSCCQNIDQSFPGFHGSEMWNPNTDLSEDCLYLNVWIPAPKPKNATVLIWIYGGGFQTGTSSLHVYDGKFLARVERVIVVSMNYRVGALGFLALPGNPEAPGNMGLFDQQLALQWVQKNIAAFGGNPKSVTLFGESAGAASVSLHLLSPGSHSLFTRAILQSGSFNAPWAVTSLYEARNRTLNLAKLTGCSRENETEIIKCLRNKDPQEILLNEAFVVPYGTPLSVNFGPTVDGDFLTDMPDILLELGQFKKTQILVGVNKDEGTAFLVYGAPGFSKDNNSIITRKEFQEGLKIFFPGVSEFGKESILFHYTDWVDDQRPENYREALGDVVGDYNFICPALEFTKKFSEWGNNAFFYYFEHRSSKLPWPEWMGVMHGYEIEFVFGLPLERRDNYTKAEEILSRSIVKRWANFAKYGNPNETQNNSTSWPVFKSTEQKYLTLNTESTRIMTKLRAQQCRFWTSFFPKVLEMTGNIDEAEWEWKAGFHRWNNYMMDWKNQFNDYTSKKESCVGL

CCCC(=O)SCC[N+](C)(C)C.[I-] [BTCI, butyrylthiocholine iodide]
kcat (s^-1) ± SD [1]: 852 ± 8 s⁻¹
Km ([1]; read-out: Km (µM) ± SD): 38.5 ± 0.3 µM

CC(C)[N+](C)(CCOC(=O)C1c2ccccc2Oc2ccccc21)C(C)C [Propantheline, reference compound]
half-life at 1 µM [2]: 17.9 min
Half-Life t1/2 (min) 2nd [3]: 18.0 min
Half-Life t1/2 (min) Mean [3]: 18 min

CCCOc1cc(N)ccc1C(=O)OCCN(CC)CC [Propoxycaine, reference compound]
half-life at 1 µM [2]: 3.3 min
Half-Life t1/2 (min) 2nd [3]: 3.0 min
Half-Life t1/2 (min) Mean [3]: 3 min

COC(=O)c1ccccc1-c1c2ccc(=N)cc-2oc2cc(N)ccc12 [Rhodamine123]
efflux ratio at 120 min ([4]; Caco-2): 2.5
Papp A→B at 120 min ([4]; after inhibition with PSC833): 1 ×10⁻⁶ cm/s
Papp A→B at 120 min ([4]; no inhibitor): 1.1 ×10⁻⁶ cm/s
Papp B→A at 120 min ([4]; after inhibition with PSC833): 2.5 ×10⁻⁶ cm/s
Papp B→A at 120 min ([4]; no inhibitor): 7.7 ×10⁻⁶ cm/s
efflux ratio [5]: 7.3

CCN(C)C(=O)Oc1cccc([C@H](C)N(C)C)c1 [Rivastigmine, rivastigmine]
effect on step-through latency ([6]; 0.5 mg kg^−1 rivastigmine + scopolamine): not active
step-through latency, retention trial ([6]; 1 mg kg^−1 rivastigmine + scopolamine): 85 s
step-through latency, retention trial ([6]; 2.5 mg kg^−1 rivastigmine + scopolamine): 99 s
effect in the RAWM task ([7]; scopolamine + 1 mg kg^−1): not effective
errors at the end of the acquisition phase (day 1) ([7]; scopolamine + 2.5 mg kg^−1): < 1 error
distance travelled to reach the platform ([8]; day 3, scopolamine + 1 mg kg^−1): 4.62 m
distance travelled to reach the platform ([8]; day 3, scopolamine + 2.5 mg kg^−1): 3.64 m
distance travelled to reach the platform ([8]; day 5, scopolamine + 1 mg kg^−1): 1.58 m
distance travelled to reach the platform ([8]; day 5, scopolamine + 2.5 mg kg^−1): 1.74 m
Distance in goal quadrant (% ±SEM) ([8]; scopolamine + 1 mg kg^–1): 58.6 ±4.4 F[3,33] = 3.307; p<0.05%
Entries in zone NW (n ±SEM) ([8]; scopolamine + 1 mg kg^–1): 6.3 ±0.5 F[3,33] = 14.87; p <0.0001 n
Latency time (s ±SEM) ([8]; scopolamine + 1 mg kg^–1): 2.1 ±0.9 F[3,33] = 0.7484; NS s
Number of NW zone crossings (n ±SEM) ([8]; scopolamine + 1 mg kg^–1): 4.5 ±0.8 F[3,33] = 1.472; NS n
Time in target (NW) quadrant (s ±SEM) ([8]; scopolamine + 1 mg kg^–1): 35.9 ±2.8 F[3.33] = 3.824; p <0.05 s
Total distance covered (m ±SEM) ([8]; scopolamine + 1 mg kg^–1): 11.3 ±0.5 F[3,33] = 0.1719; NS m
Distance in goal quadrant (% ±SEM) ([8]; scopolamine + 2.5 mg kg^–1): 54.0 ±4.4%
Entries in zone NW (n ±SEM) ([8]; scopolamine + 2.5 mg kg^–1): 7.4 ±0.6 n
Latency time (s ±SEM) ([8]; scopolamine + 2.5 mg kg^–1): 2.1 ± 1.0 s
Number of NW zone crossings (n ±SEM) ([8]; scopolamine + 2.5 mg kg^–1): 3.8 ±0.8 n
Time in target (NW) quadrant (s ±SEM) ([8]; scopolamine + 2.5 mg kg^–1): 33.5 ± 2.7 s
Total distance covered (m ±SEM) ([8]; scopolamine + 2.5 mg kg^–1): 11.0 ±0.4 m
mean speed of swimming ([8]; scopolamine + 1 mg kg^−1): 0.15 m s^−1
mean speed of swimming ([8]; scopolamine + 2.5 mg kg^−1): 0.12 m s^−1
